These results are taken from patent US20100248965A1, “HERBICIDAL COMBINATION” (Bayer CropScience AG, priority 2007, published 2010).

Values joined by “and” are separate entries in the source; they are usually repeats but may differ in a detail not shown here. Identical values can stand only once.

What all share (format): in vivo
In one assay the test system is Polygonum convolvulus. The experiment in a line: Post-emergence action against weeds (greenhouse, visual scoring): Polygonum convolvulus. As to conditions: scored 11 days after application. Here is the method: (§1) Seeds or rhizome pieces of monocotyledonous and dicotyledonous weeds were placed in sandy loam soil in plastic pots, covered with soil and cultivated in a greenhouse under good growth conditions. Three weeks after sowing, the test plants were treated at the 2- to 4-leaf stage. The compounds according to the invention, formulated as wettable powders or as emulsion concentrates, were sprayed onto the green parts of the plants in various dosages at a water application rate of 100 to 800 l/ha (converted).
(§2) Scoring was carried out 11 days after the application of the sprays. In the case of the combination with B7-16 (table 1-15), the weed was Polygonum spp. and scoring was carried out 20 days after application.
(§3) The control of the weed was scored according to the scheme below.

A further assay relates to Veronica persica. The experiment in a line: Post-emergence action against weeds (greenhouse, visual scoring): Veronica persica. The note with it: scored 10 days after application. The method, then: as §1, with “(converted). After the test plants had been left to stand in the greenhouse for 10 to 28 days under optimum growth conditions, the effect of the preparations was scored visually in comparison to untreated controls.” for “(converted).”
In an exemplary manner, tables 2-1 to 2-4 below show the improved control of the weed Veronica persica by application of the herbicide combinations according to the invention using the combination of the compound A-2 (sodium salt of 2-iodo-N-[(4-methoxy-6-methyl-1,3,5-triazin-2-yl)carbamoyl]benzenesulfonamide) and selected herbicides from group B, i.e. the herbicides amidosulfuron (=B7-1), ethoxysulfuron (=B7-9), flucarbazone-sodium (B8-1), and sulfosulfuran (B7-28), as an example.
Scoring was carried out 10 days after the application of the sprays according to the scheme below: […]

The test system of the next assay is Polygonum spp. The experiment in a line: Post-emergence action against weeds (greenhouse, visual scoring): Polygonum spp. As to conditions: scored 20 days after application. The method, then:
as §1, §2, §3

[1] abbreviates: 2.5 g of ai/ha, 0%=no control, 100%=complete control.

Turning to `COc1cc(OC)n2nc(NS(=O)(=O)c3c(C(F)(F)F)ccnc3OC)nc2n1` [Compound B9-7, pyroxsulam], the “Polygonum convolvulus Control in %” value with Polygonum convolvulus (setting [1]) stood at 75%.

As to `COC(=O)c1csc(C)c1S(=O)(=O)NC(=O)n1nc(OC)n(C)c1=O` [Compound B8-3, thiencarbazone-methyl], the “Polygonum convolvulus Control in %” value in the assay with Polygonum convolvulus (1 g of ai/ha) came to 50%.

As to `CCOc1ccccc1OS(=O)(=O)NC(=O)Nc1nc(OC)cc(OC)n1` [Compound B7-9, ethoxysulfuron], the “Veronica persica Control in %” value in the assay on Veronica persica (5 g of ai/ha) amounted to 8%.

Turning to `COc1ncc(F)c2nc(S(=O)(=O)Nc3c(F)cccc3F)nn12` [Compound B9-3, florasulam], the “Polygonum convolvulus Control in %” value in the assay with Polygonum convolvulus (setting [1]) is 73%.

Turning to `COC(=O)c1ccc(I)cc1S(=O)(=O)[N-]C(=O)Nc1nc(C)nc(OC)n1.[Na+]` [Compound B7-16, iodosulfuron-methyl-sodium], the “Polygonum spp. Control in %” value in the assay on Polygonum spp. (2 g of ai/ha) came out at 73%.

Regarding “sodium salt of 2-iodo-N-[(4-methoxy-6-methyl-1,3,5-triazin-2-yl)carbamoyl]benzenesulfonamide [Compound A-2]”, the “Polygonum convolvulus Control in %” value in the assay with Polygonum convolvulus (setting [1]) was 10% and 0%. Also, the “Veronica persica Control in %” value in the assay with Veronica persica (2.5 g of ai/ha, 0%=No control, 100%=Complete control) was 10% and 0%. In the assay on Polygonum spp. (2.5 g of ai/ha), the “Polygonum spp. Control in %” value was 0%.

With `CCCc1ccc2nc(Cl)c(S(=O)(=O)NC(=O)Nc3nc(OC)cc(OC)n3)n2n1` [Compound B7-38], the “Polygonum convolvulus Control in %” value with Polygonum convolvulus (30 g of ai/ha) is on record as 0%.

In the case of `COC(=O)c1ccc(CNS(C)(=O)=O)cc1S(=O)(=O)NC(=O)Nc1nc(OC)cc(OC)n1` [Compound B7-17, mesosulfuron-methyl], in the assay on Polygonum convolvulus (5 g of ai/ha), the “Polygonum convolvulus Control in %” value was 20%.

Turning to `COC(=O)c1ccccc1S(=O)(=O)NC(=O)Nc1nc(C)nc(OC)n1` [Compound B7-18, metsulfuron-methyl], in the assay with Polygonum convolvulus (setting [1]), the “Polygonum convolvulus Control in %” value came out at 70%.

For the compound `CCCOc1nn(C(=O)[N-]S(=O)(=O)c2ccccc2C(=O)OC)c(=O)n1C.[Na+]` [Compound B8-2, propoxycarbazone-sodium], in the assay with Polygonum convolvulus (10 g of ai/ha), the “Polygonum convolvulus Control in %” value is recorded as 38%.

In the case of `COc1cc(OC)nc(NC(=O)NS(=O)(=O)N(C)S(C)(=O)=O)n1` [Compound B7-1, amidosulfuron], in the assay with Veronica persica (5 g of ai/ha), the “Veronica persica Control in %” value is 0%.

On to `COc1cc(OC)nc(NC(=O)NS(=O)(=O)c2cc(NC=O)ccc2C(=O)N(C)C)n1` [Compound B7-13, foramsulfuron], for which the “Polygonum convolvulus Control in %” value in the assay on Polygonum convolvulus (10 g of ai/ha) is given as 15%.

On to `COc1nn(C(=O)[N-]S(=O)(=O)c2ccccc2OC(F)(F)F)c(=O)n1C.[Na+]` [Compound B8-1, flucarbazone-sodium], for which the “Polygonum convolvulus Control in %” value in the assay on Polygonum convolvulus (10 g of ai/ha) is recorded as 55%. In addition, the “Veronica persica Control in %” value in the assay with Veronica persica (10 g of ai/ha) is given as 15%.

Consider `CCOC(=O)Nc1cccc(OC(=O)Nc2ccccc2)c1` [Compound B5-5, desmedipham], for which the “Polygonum convolvulus Control in %” value with Polygonum convolvulus (50 g of ai/ha) was 28%.

Consider `COC(=O)c1sccc1S(=O)(=O)NC(=O)Nc1nc(C)nc(OC)n1` [Compound B7-29, thifensulfuron-methyl], for which the “Polygonum convolvulus Control in %” value in the assay with Polygonum convolvulus (7.5 g of ai/ha) was 87%.

Turning to `COC(=O)c1ccccc1S(=O)(=O)NC(=O)N(C)c1nc(C)nc(OC)n1` [Compound B7-31, tribenuron-methyl], the “Polygonum convolvulus Control in %” value with Polygonum convolvulus (10 g of ai/ha) is listed as 80%.

Turning to `COc1nc(NC(=O)NS(=O)(=O)c2ccccc2C(F)(F)F)nc(C(F)(F)F)n1` [Compound B7-34, tritosulfuron], in the assay with Polygonum convolvulus (10 g of ai/ha), the “Polygonum convolvulus Control in %” value amounted to 58%.

Consider `CCS(=O)(=O)c1nc2ccccn2c1S(=O)(=O)NC(=O)Nc1nc(OC)cc(OC)n1` [Compound B7-28, sulfosulfuron], for which the “Polygonum convolvulus Control in %” value in the assay with Polygonum convolvulus (7.5 g of ai/ha) was 78%. The “Veronica persica Control in %” value in the assay on Veronica persica (7.5 g of ai/ha) was 30%.
